# Measurements as given in US8143282B2, “Heterocyclic compounds” (S*BIO Pte Ltd., priority 2005, dated 2012).
# Tests used:
# [1] = tested on: A2780; assay: Cell-based proliferation assay for GI50 (CyQUANT), A2780; settings: Homo sapiens; A2780, 96 h treatment; read-out: Cellular or Growth Inhibition Activity, GI50, A2780
# Experimental: (§1) Human colon cancer cell lines (Colo205, HCT116), Ovarian cancer cell line (A2780), Hepatoma cell line (HEP3B), Prostate cancer cell line (PC3) were obtained from ATCC or ECACC. Colo205 cells were cultivated in RPMI 1640 containing 2 mM L-Glutamine, 5% FBS, 1.0 mM Na Pyruvate, 1 U/ml of penicillin and 1 μg of streptomycin. HCT116 cells were cultivated in McCoy's containing RPMI 1640 containing 2 mM L-Glutamine, 5% FBS, 1 U/ml of penicillin and 1 μg of streptomycin. A2780 cells were cultivated in RPMI 1640 containing 2 mM L-Glutamine, 5% FBS, 1 U/ml of penicillin and 1 μg of streptomycin. HEP3B cells were cultivated in EMEM containing 2 mM L-glutamine, 5% FBS, 1% non essential amino acid, 1 mM Na Pyruvate, 1 U/ml of penicillin and 1 μg of streptomycin. PC3 cells were cultivated in F12K, 2 mM L-glutamine, 5% FBS, 1 U/ml of penicillin and 1 μg of streptomycin. PC3, Colo205, and HCT116 cells were seeded in 96-wells plate at 1000, 5000 and 6000 cells per well respectively. A2780 and HEP3B cells were seeded in 96-wells plate at 4000 cells per well respectively. The plates were incubated at 37° C., 5% CO2, for 24 h. Cells were treated with compounds at various concentrations for 96 h. Cell growth was then monitored using CyQUANT® cell proliferation assay (Invitrogen Pte Ltd). Dose response curves were plotted to determine GI50 values for the compounds using XL-fit (ID Business Solution, Emeryville, Calif.). GI50 is defined as the concentration of compound required for 50% inhibition of cell growth.
# [2] = tested on: Colo205 cells; assay: Cell-based proliferation assay for GI50 (CyQUANT), Colo205; settings: Homo sapiens, COLO 205, 96 h treatment, read-out: Cellular or Growth Inhibition Activity in Colo205 cells, GI50
# In short: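 Cells were seeded at 1000 (PC3), 5000 (Colo205), 6000 (HCT116) or 4000 (HEP3B) per well and left 24 h at 37° C. Compound treatment lasted 96 h. Growth was read by CyQUANT, and GI50 (50% growth inhibition) came from dose-response curves.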
# [3] = tested on: PC3; assay: Cell-based proliferation assay for GI50 (CyQUANT), PC3; settings: Homo sapiens, PC-3; PC3, 96 h treatment; read-out: Cellular or Growth Inhibition Activity, GI50, PC3
# Experimental: as §1
# [4] = tested on: HCT116; assay: Cell-based proliferation assay for GI50 (CyQUANT), HCT116; settings: Homo sapiens, HCT-116; HCT116, 96 h treatment; read-out: Cellular or Growth Inhibition Activity, GI50, HCT116
# Experimental: as §1
# [5] = target: T1, HDAC1 enzyme (Homo sapiens, UniProt Q13547); assay: In vitro HDAC assay for determination of IC50 values (BIOMOL fluorescent-based HDAC activity assay); format: biochemical
# T1 construct: Amplification of human HDAC1 coding region from this cDNA library was cloned separately into the baculovirus expression pDEST20 vector; made in house; host or cells: SF9 insect cells, pDEST20-HDAC1 baculovirus
# In short: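 Recombinant GST-HDAC1, cloned from SW620 cDNA and expressed in Sf9 cells, tested in a fluorogenic Fluor de Lys deacetylase assay. Developer was added for 10 min and fluorescence read at 360/460 nm. IC50 came from concentration series.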
# [6] = Measurement of microsomal stability; format: in vitro ADME; settings: pooled human liver microsomes, pH 7.4; human liver microsome, 5 μM test compound, 1.0 mg/ml microsomal protein
# Experimental: Metabolic stability measurements in the in vitro using liver microsomes aids in the prediction of the in vivo hepatic clearance and the compound stability towards phase I biotransformation reactions mediated by P450 isozymes.
# Pooled human liver microsome (HLM was purchased from BD Gentest (BD BioSciences). The incubations consisted of test compound (5 μM) or control compound (Verapamil), NADPH-generating system solution A (25 mM NADP^+, 66 mM glucose-6-phosphate, 66 mM MgCl2 in H2O), NADPH-generating system solution B (40 U/ml glucose-6-phosphate dehydrogenase in 5 mM sodium citrate) and 1.0 mg/ml microsomal protein, respectively, in 100 mM potassium phosphate buffer (pH 7.4). Samples were incubated for 0, 5, 15, 30, 45, 60 min. Reaction was terminated with ice-cold 80% acetonitrile and 20% DMSO. Samples were subsequently centrifuged at 4° C. for 15 min at 2,000 rpm. 100 μL of the supernatant was transferred to the LC-MS Plate for analysis. Before quantitative analysis, the compound was tuned in LC/MS machine to get the optimized MS condition. Liquid chromatography was performed on a Luna C18 column (Phenomenex U.S.A, Torrance, Calif.) (2×50 mm, 5 μM). % of the compound remaining (by area) at each time point is calculated with respect to time 0 min. Plot % remaining against time (min) to obtain the curve and use the Prism software to obtain the t1/2.
# [7] = tested on: acetylated histone H3; assay: Histone H3 acetylation assay (immuno-blotting) in Colo205 cells; format: cell-based, Human; settings: 10 μM, 24 h, western-blot
# Experimental: A hallmark of histone deacetylase (HDAC) inhibition is the increase in the acetylation level of histones. Histone acetylation, including H3, H4 and H2A can be detected by immuno-blotting (western-blot). Colo205 cells, approximately 5×10^5 cells, were seeded in the previously described medium, cultivated for 24 h and subsequently treated with HDAC inhibitory agents and a positive control at a final concentration of 10 μM. After 24 h, cells were harvested and lysed according to the instruction from Sigma Mammalian Cell Lysis Kit. The protein concentration was quantified using BCA method (Sigma Pte Ltd). The protein lysate was separated using 4-12% bis-tris SDS-PAGE gel (Invitrogen Pte Ltd) and was transferred onto PVDF membrane (BioRad Pte Ltd). The membrane was probed using primary antibody specific for acetylated histone H3 (Upstate Pte Ltd). The detection antibody, goat anti rabbit antibody conjugated with HRP was used according to the manufacturing instruction (Pierce Pte Ltd). After removing the detection antibody from the membrane, an enhanced chemiluminescent substrate for detection of HRP (Pierce Pte Ltd) was added onto the membrane. After removing the substrate, the membrane was exposed to an X-ray film (Kodak) for 1 sec-20 mins. The X-ray film was developed using the X-ray film processor. The density of each band observed on the developed film could be qualitatively analyzed using UVP Bioimaging software (UVP, Inc, Upland, Calif.). The values were then normalized against the density of actin in the corresponding samples to obtain the expression of the protein.
# [8] = tested on: HEP3B; assay: Cell-based proliferation assay for GI50 (CyQUANT), HEP3B; settings: Homo sapiens, 96 h treatment, read-out: Cellular or Growth Inhibition Activity, GI50, HEP3B
# Experimental: as §1
# T1 sequence (Q13547 whole entry): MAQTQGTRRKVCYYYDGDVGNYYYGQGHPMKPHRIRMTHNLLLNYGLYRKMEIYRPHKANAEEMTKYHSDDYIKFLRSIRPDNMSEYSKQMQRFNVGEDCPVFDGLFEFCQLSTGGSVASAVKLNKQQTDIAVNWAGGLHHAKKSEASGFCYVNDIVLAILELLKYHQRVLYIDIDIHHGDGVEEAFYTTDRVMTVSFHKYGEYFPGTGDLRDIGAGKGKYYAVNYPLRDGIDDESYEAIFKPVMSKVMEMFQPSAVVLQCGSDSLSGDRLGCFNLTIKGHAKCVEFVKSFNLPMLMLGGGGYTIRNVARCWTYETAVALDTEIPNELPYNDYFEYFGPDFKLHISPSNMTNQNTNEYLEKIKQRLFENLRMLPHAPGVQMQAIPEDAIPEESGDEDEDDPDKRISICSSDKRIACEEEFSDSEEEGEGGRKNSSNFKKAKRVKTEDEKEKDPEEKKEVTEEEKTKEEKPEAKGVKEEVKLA
Compound,GI50 [1] [nM],GI50 [2] [nM],GI50 [3] [nM],GI50 [4] [nM],IC50 [5] [nM],half-life at 5 μM [6] [min],GI50 [8] [nM],Histone Acetylation activities (Histone-3) [7]
"CC/C=C\CCc1nc2cc(/C=C/C(=O)NO)ccc2n1CC(C)(C)CN(C)C [Compound 22, 3-[1-(3-Dimethylamino-2,2-dimethyl-propyl)-2-hex-3-enyl-1H-benzoimidazol-5-yl]-N-hydroxy-acrylamide]",< 500,750,< 500,1000 to 5000,64,,,
"CC(Cc1nc2cc(/C=C/C(=O)NO)ccc2n1CC(C)(C)CN(C)C)CC(C)(C)C (centres unmarked) [Compound 23, 3-[1-(3-Dimethylamino-2,2-dimethyl-propyl)-2-(2,4,4-trimethyl-pentyl)-1H-benzoimidazol-5-yl]-N-hydroxy-acrylamide]",< 500,190,< 500,500 to 1000,45,,,
"CC/C=C\CCc1nc2cc(/C=C/C(=O)NO)ccc2n1CCNCC [Compound 30, 3-[1-(2-Ethylamino-ethyl)-2-hex-3-enyl-1H-benzoimidazol-5-yl]-N-hydroxy-acrylamide]",< 500,310,< 500,500 to 1000,,,,
"CCCCCc1nc2cc(/C=C/C(=O)NO)ccc2n1CCN(C)C [Compound 65, 3-[1-(2-Dimethylamino-ethyl)-2-pentyl-1H-benzoimidazol-5-yl]-N-hydroxy-acrylamide]",,560,,,78,,,Active
"CCCCCc1nc2cc(/C=C/C(=O)NO)ccc2n1CCNCC [Compound 68, 3-[1-(2-Ethylamino-ethyl)-2-pentyl-1H-benzoimidazol-5-yl]-N-hydroxy-acrylamide]",,520,,,34,> 30,,Active
"CCCCCCc1nc2cc(/C=C/C(=O)NO)ccc2n1CCNC [Compound 74, 3-[2-Hexyl-1-(2-methylamino-ethyl)-1H-benzoimidazol-5-yl]-N-hydroxy-acrylamide]",,550,,,28,> 30,,Active
"CCCCCCc1nc2cc(/C=C/C(=O)NO)ccc2n1C1CCNC1 (centres unmarked) [Compound 80, 3-(2-Hexyl-1-pyrrolidin-3-yl-1H-benzoimidazol-5-yl)-N-hydroxy-acrylamide]",,1370,,,40,> 30,,

# Second part, led by results:
GI50 [1] [nM],GI50 [2] [nM],GI50 [3] [nM],GI50 [4] [nM],IC50 [5] [nM],half-life at 5 μM [6] [min],GI50 [8] [nM],Compound,Histone Acetylation activities (Histone-3) [7]
1000 to 5000,810,500 to 1000,1000 to 5000,,,,"CCN(CC)CCn1c(CC(C)C)nc2cc(/C=C/C(=O)NO)ccc21 [Compound 7, 3-[1-(2-Diethylamino-ethyl)-2-isobutyl-1H-benzoimidazol-5-yl]-N-hydroxy-acrylamide]",
< 500,160,< 500,< 500,27,> 30,,"CCNCCn1c(CC(C)CC(C)(C)C)nc2cc(/C=C/C(=O)NO)ccc21 (centres unmarked) [Compound 40, 3-[1-(2-Ethylamino-ethyl)-2-(2,4,4-trimethyl-pentyl)-1H-benzoimidazol-5-yl]-N-hydroxy-acrylamide]",
500 to 1000,870,< 500,1000 to 5000,54,> 30,,"CCCCc1nc2cc(/C=C/C(=O)NO)ccc2n1CCNCC [Compound 44, 3-[2-Butyl-1-(2-ethylamino-ethyl)-1H-benzoimidazol-5-yl]-N-hydroxy-acrylamide]",
< 500,170,< 500,< 500,,,,"CCCCCCc1nc2cc(/C=C/C(=O)NO)ccc2n1CCNC(C)C [Compound 50, 3-[2-Hexyl-1-(2-isopropylamino-ethyl)-1H-benzoimidazol-5-yl]-N-hydroxy-acrylamide]",
< 500,210,< 500,< 500,25,> 30,,"CCCCCCc1nc2cc(/C=C/C(=O)NO)ccc2n1CCNCC [Compound 52, 3-[1-(2-Ethylamino-ethyl)-2-hexyl-1H-benzoimidazol-5-yl]-N-hydroxy-acrylamide]",
,540,,,51,> 30,,"CCNCCn1c(CCC(C)(C)C)nc2cc(/C=C/C(=O)NO)ccc21 [Compound 63, 3-[1-(2-ethylamino-ethyl)-2-(3,3-dimethyl-butyl)-1H-benzoimidazol-5-yl]-N-hydroxy-acrylamide]",Active
< 500,240,< 500,< 500,40,> 30,,"CCCCCc1nc2cc(/C=C/C(=O)NO)ccc2n1CCNC(C)C [Compound 71, N-Hydroxy-3-[1-(2-isopropylamino-ethyl)-2-pentyl-1H-benzoimidazol-5-yl]-acrylamide]",Active
,550,,,47,> 30,,"CCCCCN(CC)CCn1cnc2cc(/C=C/C(=O)NO)ccc21 [Compound 88, 3-{1-[2-(Ethyl-pentyl-amino)-ethyl]-1H-benzoimidazol-5-yl}-N-hydroxy-acrylamide]",
,440,,,43,> 30,,"CCCCN(CCn1cnc2cc(/C=C/C(=O)NO)ccc21)C(C)C [Compound 108, 3-{1-[2-(Butyl-isopropyl-amino)-ethyl]-1H-benzoimidazol-5-yl}-N-hydroxy-acrylamide]",
,210,,,29,,< 500,"CCN(CCn1cnc2cc(/C=C/C(=O)NO)ccc21)CCC(C)(C)C [Compound 111, 3-(1-{2-[(3,3-Dimethyl-butyl)-ethyl-amino]-ethyl}-1H-benzoimidazol-5-yl)-N-hydroxy-acrylamide]",
